Key:
A375 = experiment: Flow cytometry for active (cleaved) caspase-3, A375; assay type: cell-based, human
Experimental: (§1) Flow cytometry for Active Caspase-3. Cells were seeded in a 6-well dish at a density to achieve 90-100% confluence at harvest. 24 hours after seeding, cells were treated with the indicated conditions for the indicated amount of time. At the time of collection, supernatants were collected and pooled with trypsinized cells. Cells were fixed with 4% paraformaldehyde and permeabilized according to vendor's protocol for Cleaved Caspase-3 (Asp175) Antibody (AlexaFluor 488 Conjugate) (catalog #9669) (Cell Signaling, Beverly Mass.). The antibody was used at a final dilution of 1:100. Flow was performed on a BD FACSCanto H, and data analysed with FlowJo 8.8.6 (Tree Star) software. Experiments were performed with biological triplicates and data are representative of at least three independent experiments. For experiments involving siRNAs, cells were reverse transfected with 20 nM siRNA in 6-well dishes in triplicate with RNAiMax according to manufacturer's protocol. 48 hours following transfection, cells were treated with the indicated conditions for 24 hours and then harvested for analysis. Cells were harvested, stained, and analyzed as described above.

ppERK1/2 [1] = experiment: Immunoblot for dual-phosphorylated ERK1/2 in melanoma cells; assay type: cell-based, human
Excerpt: By way of non-limiting example, inhibition of ERK signaling can be measured by determining the level of dual-phosphorylated ERK1/2 (ppERK1/2) as described in detail elsewhere herein. In brief, the level of ppERK1/2 can be detected by immunoblot assay.

GSK3β = experiment: Immunoblot for activating auto-phosphorylation of GSK3β in A375 cells; assay type: cell-based, human
Wnt/β-catenin signaling [2] = experiment: WNT3A-mediated reporter activity in primary melanocytes; assay type: cell-based, human; conditions: HEMs
ppERK1/2 [3] = experiment: Capillary-based isoelectric focusing of ppERK1/2 in fine needle aspirates of xenograft tumors; assay type: in vivo, mouse; conditions: two hours after initial 50 mg/kg PLX4720 vs baseline
Experimental: FIG. 10A depicts a schematic representation of the capillary-based isoelectric focusing method of detecting levels of ppERK1/2 in fine needle aspirates of xenograft tumors from vehicle or PLX4720 treated mice (top panel). Fine needle aspiration procedures (FNA) were performed on xenograft tumors three days prior to treatment for baseline samples and 2 hours after the initial oral gavage treatment of 50 mg/kg PLX4720. FNAs were analyzed for ppERK1/2 and HSP70 for normalization by capillary-based isoelectric focusing on a Nanopro1000 instrument (Cell Biosciences)(bottom panel). […] FNAs of xenograft tumors three days before treatment (baseline) or two hours following the initial treatment of 50 mg/kg PLX4720 were analyzed for ppERK1/2 and normalized to levels of HSP70. Columns and error bars represent the mean and standard deviation, respectively, from three xenograft tumors. […] FIG. 10D is a graph of results from an experiment in which xenograft tumors from FIG. 2A were sectioned, stained with hematoxylin- and eosin, and analyzed for mitotic cells by microscopy under high-power as described elsewhere herein. […]
Xenograft assays. […] Tumor size was determined by caliper measurements of tumor length and width every 3 to 4 days. Tumor volume was then calculated using the following formula: volume=(width)^2×length/2. […]

[4] = tested on: human A375 melanoma cells; experiment: Resazurin-based assay for cell viability
Wnt/β-catenin signaling [5] = experiment: β-catenin activated reporter (BAR) luciferase assay in A375 melanoma cells
Excerpt: By way of non-limiting example, Wnt/β-catenin signaling can be measured using the BAR reporter described in detail elsewhere herein. Briefly, the BAR (β-catenin activated reporter) is a lentiviral plasmid which provides for expression of luciferase in response to Wnt/β-catenin signaling. Output can be measured with an automated luminescence plate reader.
Detailed information on the β-catenin activated reporter (BAR) has been previously described (23). Briefly, the β-catenin activated reporter (pBAR) is a lentiviral plasmid that contains 12 TCF/LEF binding sites (5′-[sequence]-3′) each separated by distinct 5 base-pair linkers upstream of a minimal promoter and the firefly luciferase open reading frame. The reporter also contains a separate PGK promoter that constitutively drives the expression of a puromycin resistance gene for mammalian cell selection. […] PLX4720 was purchased from Symansis (Australia cat# SY-PLX4720). CHIR99021 was purchased from Axon MedChem (Gronigen, Netherlands catalog #Axon1386). Z-VAD-FMK was purchased from R&D systems (Minneapolis, Minn. cat# FMKSP01).
Low throughput BAR reporter assays. Cells were plated in 96-well plates.

SKMEL28 = experiment: Flow cytometry for active (cleaved) caspase-3, SKMEL28; assay type: cell-based, human; conditions: 2 uM PLX4720, 24 hours, in % (unit assumed)
Experimental: as §1, with “experiments.” for “experiments. For experiments involving siRNAs, cells were reverse transfected with 20 nM siRNA in 6-well dishes in triplicate with RNAiMax according to manufacturer's protocol. 48 hours following transfection, cells were treated with the indicated conditions for 24 hours and then harvested for analysis. Cells were harvested, stained, and analyzed as described above.”
(§2) For experiments involving siRNAs, cells were reverse transfected with 20 nM siRNA in 6-well dishes in triplicate with RNAiMax according to manufacturer's protocol. 48 hours following transfection, cells were treated with the indicated conditions for 24 hours and then harvested for analysis. Cells were harvested, stained, and analyzed as described above.

A375 melanoma cells = experiment: Isobologram analysis of cell viability (CellTiter-Glo); assay type: cell-based, human
Experimental: Isobologram Analysis of Cell Viability. A375 melanoma cells were seeded in 96-well plates at a concentration of 8,000 cells/well in 100 μl of growth media. 24 hours after plating, cells were treated with all combinations of 2-fold dilutions of WNT3A CM ranging from 20% to 0% and 2-fold dilutions of PLX4720 ranging from 5 μM-0 μM for 48 hours. 10 uL of CellTiter-Glo (Promega Madison, Wis.) was added to each well and total luminescence was measured on an Envision multilabel plate reader (Perkin Elmer Waltham, Mass.). Each condition within an experiment was assayed in triplicate wells and three independent experiments were performed.
Dose-effect analyses, including combination indices, dose reduction indices and median-effect analysis for FIGS. 9A-9C and FIGS. 11A-11C were performed using the method of Chou and Talay (55) via the CalcuSyn software suite (Biosoft, Cambridge UK), version 2.1.

SKMEL5 = experiment: Flow cytometry for active (cleaved) caspase-3, SKMEL5; assay type: cell-based, human; conditions: 2 uM PLX4720, 24 hours, in % (unit assumed)
Experimental: as §1, with “experiments.” for “experiments. For experiments involving siRNAs, cells were reverse transfected with 20 nM siRNA in 6-well dishes in triplicate with RNAiMax according to manufacturer's protocol. 48 hours following transfection, cells were treated with the indicated conditions for 24 hours and then harvested for analysis. Cells were harvested, stained, and analyzed as described above.”
as §2

## CCCS(=O)(=O)Nc1ccc(F)c(C(=O)c2c[nH]c3ncc(Cl)cc23)c1F [PLX4720, N-[3-[(5-Chloro-1H-pyrrolo[2,3-b]pyridin-3-yl)carbonyl]-2,4-difluorophenyl]-1-propanesulfonamide]
A375; A375, WNT3A CM plus 2 μM PLX4720, 24 hours
  increase in cleaved caspase-3: 5-20 fold
A375; A375, single agent alone, 24 hours
  cleaved caspase-3: minimal increases in cleaved caspase-3
A375; A375, WNT3A, 2 μM PLX4720, 24 hours
  SYNERGISTIC APOPTOSIS WITH WNT AND PLX4720?: YES
ppERK1/2 [1]; A375
  dual-phosphorylated ERK1/2 (ppERK1/2): dose-dependent inhibition
ppERK1/2 [1]; A375, WNT3A and PLX4720 time course
  time to inhibition of ppERK: ≤ 30 min
ppERK1/2 [1]; six established melanoma lines harboring the BRAF^V600E mutation
  ERK1/2 phosphorylation: inhibition of ERK1/2 phosphorylation
GSK3β
  activating auto-phosphorylation of GSK3B: lost
Wnt/β-catenin signaling [2]
  Wnt/β-catenin signaling: no detectable effect
ppERK1/2 [3]
  ppERK2 in xenograft tumors (normalized to HSP70): significantly less ppERK2
[4]
  cell viability / proliferation (resazurin): further decreases cell viability
Wnt/β-catenin signaling [5]; A375, PLX4720 on its own
  activation of BAR: does not lead to any measurable activation of BAR on its own
Wnt/β-catenin signaling [5]; A375, in the presence of WNT3A
  Wnt/β-catenin signaling (BAR activity): enhanced Wnt/β-catenin signaling in a dose-dependent manner
Wnt/β-catenin signaling [5]; WNT3A and PLX4720, fixed ratio doses, particularly at higher levels of BAR activity
  Combination indices (BAR activity): less than 1
SKMEL28; AXIN1/2 siRNA, L CM
  cleaved caspase-3-positive cells: 31.47 ± 0.13
SKMEL28; AXIN1/2 siRNA, W3A CM
  cleaved caspase-3-positive cells: 33.93 ± 4.1
SKMEL28; Control siRNA, L CM
  cleaved caspase-3-positive cells: 6.02 ± 0.63
SKMEL28; Control siRNA, W3A CM
  cleaved caspase-3-positive cells: 8.64 ± 1.9
A375 melanoma cells; combination of WNT3A CM and PLX4720, at 50% growth inhibition
  drug reduction indices: 8.1
A375 melanoma cells; combination of WNT3A and PLX4720, 48 hours
  combination indices (inhibition of cell growth): less than 1
SKMEL5; AXIN1/2 siRNA, L CM
  cleaved caspase-3-positive cells: 11.88 ± 0.18
SKMEL5; AXIN1/2 siRNA, W3A CM
  cleaved caspase-3-positive cells: 13.13 ± 2.7
SKMEL5; Control siRNA, L CM
  cleaved caspase-3-positive cells: 3.39 ± 0.22
SKMEL5; Control siRNA, W3A CM
  cleaved caspase-3-positive cells: 4.28 ± 1.2
